ChEMBL document CHEMBL1201862, “PubChem BioAssay data set” (2004)
Activity calls are given as the source filed them.

Tests used:
[1] = target: T1, Sentrin-specific protease 7 (Homo sapiens, UniProt Q9BQF6); format: functional;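 further: Luminescence-based dose-response confirmation of ultra-high-throughput screening hits, measuring inhibition of SENP7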
T1 sequence (Q9BQF6 whole entry): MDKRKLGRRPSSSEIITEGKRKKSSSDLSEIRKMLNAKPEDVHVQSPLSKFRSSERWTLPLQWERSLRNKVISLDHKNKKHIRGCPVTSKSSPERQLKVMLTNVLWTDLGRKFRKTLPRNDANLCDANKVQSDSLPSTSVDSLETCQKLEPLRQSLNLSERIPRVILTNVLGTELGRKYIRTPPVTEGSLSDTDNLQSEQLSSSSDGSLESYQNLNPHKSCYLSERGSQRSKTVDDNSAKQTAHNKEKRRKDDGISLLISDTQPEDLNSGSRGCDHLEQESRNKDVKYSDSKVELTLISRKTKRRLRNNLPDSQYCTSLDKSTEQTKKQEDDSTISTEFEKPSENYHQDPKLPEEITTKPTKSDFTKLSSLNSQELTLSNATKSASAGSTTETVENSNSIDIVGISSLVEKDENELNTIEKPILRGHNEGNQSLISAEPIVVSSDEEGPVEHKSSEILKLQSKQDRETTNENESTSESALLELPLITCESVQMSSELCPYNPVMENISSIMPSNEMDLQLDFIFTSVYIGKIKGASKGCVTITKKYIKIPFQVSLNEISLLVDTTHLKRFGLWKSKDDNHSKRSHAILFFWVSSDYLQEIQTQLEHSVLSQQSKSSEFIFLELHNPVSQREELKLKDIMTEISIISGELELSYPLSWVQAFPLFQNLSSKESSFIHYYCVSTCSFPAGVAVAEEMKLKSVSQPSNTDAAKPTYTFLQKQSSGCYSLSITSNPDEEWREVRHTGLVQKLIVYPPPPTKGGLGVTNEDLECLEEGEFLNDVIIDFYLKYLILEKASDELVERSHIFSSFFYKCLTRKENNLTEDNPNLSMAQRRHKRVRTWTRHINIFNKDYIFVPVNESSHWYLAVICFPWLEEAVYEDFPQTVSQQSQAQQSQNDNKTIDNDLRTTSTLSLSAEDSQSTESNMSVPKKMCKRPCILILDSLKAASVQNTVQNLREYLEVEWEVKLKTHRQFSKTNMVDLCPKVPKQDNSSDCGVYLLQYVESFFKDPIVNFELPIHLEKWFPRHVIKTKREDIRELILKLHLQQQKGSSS

[2] = target: T1, Sentrin-specific protease 7; test: SENP7 protease inhibitors, SAR follow-up, biochemical, luminescence (AID 504497); format: functional
[3] = target: T2, Caspase-3 (Homo sapiens, UniProt P42574); format: functional
T2 sequence (P42574 whole entry): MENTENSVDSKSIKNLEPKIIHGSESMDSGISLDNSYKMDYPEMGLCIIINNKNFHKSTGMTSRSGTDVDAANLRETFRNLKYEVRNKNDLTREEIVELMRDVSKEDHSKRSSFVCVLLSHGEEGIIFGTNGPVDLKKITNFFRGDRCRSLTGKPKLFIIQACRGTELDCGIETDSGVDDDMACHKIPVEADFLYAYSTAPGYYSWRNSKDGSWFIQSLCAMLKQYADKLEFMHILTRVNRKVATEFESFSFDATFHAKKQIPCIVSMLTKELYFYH

[4] = target: T3, Sentrin-specific protease 8 (Homo sapiens, UniProt Q96LD8); test: SENP8 protease inhibitors, SAR follow-up, biochemical, luminescence (AID 504501); format: functional
T3 sequence (Q96LD8 whole entry): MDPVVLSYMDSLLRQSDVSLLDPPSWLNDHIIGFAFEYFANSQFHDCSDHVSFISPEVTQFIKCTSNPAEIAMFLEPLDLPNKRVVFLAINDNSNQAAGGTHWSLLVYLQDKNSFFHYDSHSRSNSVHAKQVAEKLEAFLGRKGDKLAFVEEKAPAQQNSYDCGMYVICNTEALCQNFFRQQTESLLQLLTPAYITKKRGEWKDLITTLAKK

[5] = target: T3, Sentrin-specific protease 8; format: functional
[6] = target: T4, Sentrin-specific protease 6 (Homo sapiens, UniProt Q9GZR1); format: functional
T4 sequence (Q9GZR1 whole entry): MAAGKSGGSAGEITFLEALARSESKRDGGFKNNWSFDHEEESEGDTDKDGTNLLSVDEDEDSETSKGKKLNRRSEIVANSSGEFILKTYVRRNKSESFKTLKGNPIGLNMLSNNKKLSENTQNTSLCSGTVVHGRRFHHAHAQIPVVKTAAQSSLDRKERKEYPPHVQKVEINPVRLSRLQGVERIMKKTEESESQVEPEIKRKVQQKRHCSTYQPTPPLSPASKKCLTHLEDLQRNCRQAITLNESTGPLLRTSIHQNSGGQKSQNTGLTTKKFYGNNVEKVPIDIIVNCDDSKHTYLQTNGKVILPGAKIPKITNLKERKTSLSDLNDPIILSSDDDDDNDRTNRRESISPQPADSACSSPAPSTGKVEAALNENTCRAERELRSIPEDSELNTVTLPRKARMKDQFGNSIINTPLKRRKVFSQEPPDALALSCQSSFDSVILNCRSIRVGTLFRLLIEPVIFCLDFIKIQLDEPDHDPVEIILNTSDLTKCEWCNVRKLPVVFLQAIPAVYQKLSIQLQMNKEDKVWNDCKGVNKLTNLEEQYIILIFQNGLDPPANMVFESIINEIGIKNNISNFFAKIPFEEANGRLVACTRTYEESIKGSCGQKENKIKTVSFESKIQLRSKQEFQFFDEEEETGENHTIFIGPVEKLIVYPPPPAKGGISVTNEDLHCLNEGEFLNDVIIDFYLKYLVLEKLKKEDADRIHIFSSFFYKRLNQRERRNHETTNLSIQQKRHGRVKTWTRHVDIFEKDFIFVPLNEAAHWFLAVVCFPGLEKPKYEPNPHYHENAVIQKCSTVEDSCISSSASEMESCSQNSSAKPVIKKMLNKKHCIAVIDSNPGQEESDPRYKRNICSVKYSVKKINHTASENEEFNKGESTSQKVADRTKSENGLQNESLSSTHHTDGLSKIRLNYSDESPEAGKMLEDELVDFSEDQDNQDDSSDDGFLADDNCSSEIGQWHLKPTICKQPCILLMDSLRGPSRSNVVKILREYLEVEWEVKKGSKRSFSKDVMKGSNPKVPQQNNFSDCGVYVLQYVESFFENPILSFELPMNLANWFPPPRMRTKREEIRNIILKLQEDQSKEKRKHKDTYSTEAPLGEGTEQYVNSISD

[7] = target: T4, Sentrin-specific protease 6; test: SAR Analysis of small molecule inhibitors of Sentrin-specific protease 6 (SENP6) using a Luminescent assay. [Related pubchem assays (depositor defined):AID2582, AID2599]; format: functional
[8] = target: T2, Caspase-3; test: SAR Analysis of small molecule inhibitors of Sentrin-specific proteases (SENPs) using a Caspase-3 Selectivity assay. [Related pubchem assays (depositor defined):AID2540, AID2599, AID434973, AID489001]; format: functional
[9] = HEp-2 cell cytotoxicity, dose response, cytotoxicity control for RSV inhibitor project, HTS (AID 2410); format: functional; settings: human respiratory syncytial virus
[10] = test system: BJ; test: cells; format: functional, cell-based; settings: Homo sapiens
[11] = test system: BJ; test: cytotoxicity toward Ras-transformed BJeLR fibroblasts, dose response, cell-based, alamar blue fluorescence, cherrypicked samples (AID 2631); format: functional; settings: Homo sapiens;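 further: confirmatory dose-response assay in RAS-dependent BJ fibroblasts engineered with TERT, LT and ST, with cytotoxicity read by fluorescence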
[12] = test system: BJ; test: cytotoxicity toward BJ-TERT fibroblasts, dose response, cell-based, RAS-independent, luminescence (AID 1933); format: functional; settings: Homo sapiens
[13] = test system: BJ; test: cytotoxicity toward BJ-TERT-LT-ST fibroblasts, dose response, cell-based, RAS-independent, luminescence (AID 1935); format: functional; settings: Homo sapiens;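 further: BJ fibroblasts immortalized with TERT plus LT and ST oncogenes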
[14] = cytotoxicity toward DRD oncogenic fibroblasts, dose response, cell-based, non-viral oncogenic, luminescence (AID 1934); format: functional; settings: Homo sapiens
[15] = growth suppression of beta-catenin-knockout colon cells, dose response, cell-based, HCT116, human colon tumor (AID 1045); format: functional;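 further: HCT116 colon tumor cells with beta catenin knocked out; cells exposed to compound for 60 hours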
[16] = growth suppression of PTEN-null colon cells, dose response, cell-based, HCT116 PTEN knockout (AID 1047); format: functional;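 further: HCT116 colon tumor cells with PTEN knocked out; cells exposed to compound for 60 hours before readout; potency for loss of cell viability measured by luminescence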
[17] = target: T5, Replicative DNA helicase DnaB (Mycobacterium tuberculosis, UniProt P9WMR3); test: DnaB intein splicing inhibitors, dose response, biochemical, cell-free fluorescence (AID 449749); format: functional
T5 sequence (P9WMR3 whole entry): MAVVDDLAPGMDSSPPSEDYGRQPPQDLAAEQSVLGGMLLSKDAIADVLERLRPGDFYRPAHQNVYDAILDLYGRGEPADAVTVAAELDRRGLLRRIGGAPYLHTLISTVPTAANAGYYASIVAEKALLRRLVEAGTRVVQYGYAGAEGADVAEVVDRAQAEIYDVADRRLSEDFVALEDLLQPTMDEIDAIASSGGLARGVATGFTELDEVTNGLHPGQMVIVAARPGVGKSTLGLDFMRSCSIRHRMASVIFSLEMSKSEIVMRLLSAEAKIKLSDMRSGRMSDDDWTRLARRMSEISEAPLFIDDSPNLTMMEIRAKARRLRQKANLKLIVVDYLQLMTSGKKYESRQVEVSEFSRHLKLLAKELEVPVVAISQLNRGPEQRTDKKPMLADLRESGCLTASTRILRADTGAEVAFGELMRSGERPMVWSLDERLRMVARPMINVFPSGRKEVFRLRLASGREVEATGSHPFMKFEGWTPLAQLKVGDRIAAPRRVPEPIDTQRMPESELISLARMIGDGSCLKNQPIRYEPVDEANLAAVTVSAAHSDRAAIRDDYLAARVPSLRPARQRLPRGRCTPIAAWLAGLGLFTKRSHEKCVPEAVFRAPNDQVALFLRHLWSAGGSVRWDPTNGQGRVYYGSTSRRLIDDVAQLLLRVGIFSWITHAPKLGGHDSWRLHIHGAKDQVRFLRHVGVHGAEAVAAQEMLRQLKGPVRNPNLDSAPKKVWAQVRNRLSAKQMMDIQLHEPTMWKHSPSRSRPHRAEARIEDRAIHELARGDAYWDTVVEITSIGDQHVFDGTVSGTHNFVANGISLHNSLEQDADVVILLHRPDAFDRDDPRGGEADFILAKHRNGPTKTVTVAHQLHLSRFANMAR

[18] = target: T6, Protein RecA (Mycobacterium tuberculosis, UniProt P9WHJ3); test: Fluorescence Cell-Free Homogeneous Dose Retest to Identify Inhibitors of RecA-Intein Splicing Activity. [Related pubchem assays (depositor defined):AID2097, AID2223, AID489010, AID492950]; format: functional
T6 sequence (P9WHJ3 whole entry): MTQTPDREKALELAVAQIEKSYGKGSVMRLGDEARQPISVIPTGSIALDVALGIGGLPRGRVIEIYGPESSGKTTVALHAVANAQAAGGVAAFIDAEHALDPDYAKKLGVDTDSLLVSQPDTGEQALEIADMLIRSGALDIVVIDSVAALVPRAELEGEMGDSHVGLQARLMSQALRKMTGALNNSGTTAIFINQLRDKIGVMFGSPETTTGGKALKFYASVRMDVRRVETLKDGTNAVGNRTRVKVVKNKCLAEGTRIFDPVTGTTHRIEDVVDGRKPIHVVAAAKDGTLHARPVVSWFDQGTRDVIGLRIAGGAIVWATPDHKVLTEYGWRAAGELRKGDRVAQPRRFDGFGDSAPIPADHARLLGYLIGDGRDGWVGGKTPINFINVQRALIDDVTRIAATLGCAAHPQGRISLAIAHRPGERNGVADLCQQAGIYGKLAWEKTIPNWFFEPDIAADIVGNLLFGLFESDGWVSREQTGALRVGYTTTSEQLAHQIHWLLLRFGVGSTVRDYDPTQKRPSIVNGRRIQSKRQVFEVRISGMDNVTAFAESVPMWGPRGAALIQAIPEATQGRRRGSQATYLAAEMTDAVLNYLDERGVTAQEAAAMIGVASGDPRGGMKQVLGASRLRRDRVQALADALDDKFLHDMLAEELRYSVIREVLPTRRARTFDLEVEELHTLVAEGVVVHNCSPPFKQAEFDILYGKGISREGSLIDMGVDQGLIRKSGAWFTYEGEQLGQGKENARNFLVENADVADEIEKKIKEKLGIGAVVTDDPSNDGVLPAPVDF

## CCc1ccc2oc(-c3ccc(NC(C)=O)cc3)nc2c1
[1]
  IC50: 2.89 µM (active)
[2]
  IC50: 2.09 µM (active)
[3]
  IC50: 12.4 µM (active)
[4]
  IC50: 5.46 µM (active)
[5]
  IC50: 13.2 µM (active)
[6]
  IC50: 8.05 µM (active)
[7]
  IC50: 5.12 µM (active)
[8]
  IC50: 7.01 µM (active)
[9]
  CC50: 22.2 µM (active)

## COc1cc([C@H]2c3[nH]c4ccccc4c3C[C@H]3C(=O)N4[C@@H](c5cc(OC)c(OC)c(OC)c5)c5[nH]c6ccccc6c5C[C@H]4C(=O)N23)cc(OC)c1OC
[10]
  EC50: > 150 µM (inconclusive)
[11]
  EC50: > 133 µM (inactive)
[12]
  EC50: 3.48 µM (active)
[9]
  CC50: 19.1 µM (active)
[13]
  EC50: 14.3 µM (inconclusive)
[14]
  EC50: 5.02 µM (active)

## CCCCc1c(C)c(C#N)c2nc3ccccc3n2c1Cl
[10]
  EC50: 2.85 µM (active)
[15]
  EC50: 1.52 µM (active)
[11]
  EC50: 0.57 µM (active)
[12]
  EC50: 2.22 µM (active)
[13]
  EC50: 1.75 µM (inconclusive)
[16]
  EC50: 1.88 µM (active)
[14]
  EC50: 2.76 µM (active)

## O=C(/C=C/c1ccc(OC2CSC2)cc1)c1ccc(Cl)cc1
[2]
  IC50: > 99 µM (inactive)
[4]
  IC50: > 99 µM (inactive)
[7]
  IC50: > 99 µM (inactive)
[8]
  IC50: > 99 µM (inactive)

## Cc1ccc(C2=NN(C(=O)CCl)C(c3ccco3)C2)o1 (stereo not given)
[17]
  AC50: 30.3 µM (active)
[18]
  EC50: 5.58 µM (active)
[11]
  EC50: 3.42 µM (active)
[12]
  EC50: 3.33 µM (inconclusive)
[13]
  EC50: 11.1 µM (inconclusive)
[14]
  EC50: 5.27 µM (active)

## O=C(Nc1nc2ccc(NC(=O)c3n[nH]c4c3CCc3ccccc3-4)cc2s1)c1ccccc1
[2]
  IC50: > 99 µM (inactive)
[4]
  IC50: > 99 µM (inactive)
[7]
  IC50: > 99 µM (inactive)
[8]
  IC50: > 99 µM (inactive)

## Fc1cc(C(F)(F)F)ccc1-c1nc(/C=C/c2ccccc2)no1
[2]
  IC50: > 99 µM (inactive)
[4]
  IC50: > 99 µM (inactive)
[7]
  IC50: > 99 µM (inactive)
[8]
  IC50: > 99 µM (inactive)
